Patent US8178148B2, “Coffee drink composition” (Kao Corporation, priority 2004, dated 2012)

Test system: spontaneously hypertensive rats (SHR)
Assay: Evaluation of hypotensive effect of FH1041 with added hydroxyhydroquinone (Example 3)
Type: in vivo, rat
Details: oral, HHQ added to FH1041 (300 mg/kg as total chlorogenic acids)
Method: (a) As in Example 2, 12-week-old male spontaneously hypertensive rats (SHR) was bred preliminarily.
(B) Administration Method and Amount: • Physiological saline was orally administered to a control group. An extract from raw coffee beans (“Flavor Holder FH1041”, product of T. Hasegawa Co., Ltd.) having chlorogenic acids as a main component was administered to a comparison group. The extract was prepared so that its administration amount would be 300 mg/kg in terms of the total chlorogenic acid amount. In test group 1, an administration material was prepared to permit the administration of FH1041 in an amount of 300 mg/kg in terms of a total chlorogenic acid amount and the administration of hydroxyhydroquinone in an amount of 0.03 mg/kg (0.01% relative to the total chlorogenic acid amount). In test group 2, an administration material was prepared to permit the administration of FH1041 in an amount of 300 mg/kg in terms of a total chlorogenic acid amount and the administration of hydroxyhydroquinone in an amount of 0.3 mg/kg (0.1% relative to the total chlorogenic acid amount). […]
Test method: One group consisted of three SHR. Systolic blood pressures of the caudal artery were measured prior to oral administration and 12 hours after administration and based on them, a percent change in blood pressure was calculated. […]

Oc1ccc(O)c(O)c1 [hydroxyhydroquinone]
Influence on the hypotensive effect of chlorogenic acids: disturbed
